Tested on: bone marrow-derived dendritic cells
Experiment: Migration filter chemotaxis assay (chemotaxis index)
Type: cell-based
Protocol: The formyl peptide fMLP (formyl-Met-Leu-Phe) chemoattractant has been studied in addition to the protein chemokine MIP-3α. The formyl peptide is a bacterial byproduct that attracts DC's to sites of infection. It has been reported in the literature to be attractive for iDC's in mice and humans. […] For these experiments, DC's were placed on the top of a migration filter containing 5-μm pores with a reservoir of fMLP (or MIP-3α) at the indicated concentration on the other side. After 90 minutes, the number of cells migrating in response to the chemoattractants was counted and compared to controls. In FIG. 18, CI is the chemotaxis index, defined as (number of migrated cells in chemokine)/(number of migrated cells in control without chemokine).
The literature reports CI up to ≈5 max for bone-marrow-derived dendritic cells (BMDC's), but this experiment was carried out on late-stage DC cultures (DC's are starting to mature on Day 7) and the culture was not purified, thus a significant contamination with neutrophils is likely present; thus the real CI is possibly higher.

Substance: MIP-3α: protein chemokine
- concentration giving maximal migration (previous experiments, in line with literature reports): 1 µg/mL

Substance: formyl-Met-Leu-Phe [fMLP]
- maximal potency of attraction of dendritic cells (5-μm pore migration filter, 90 minutes, Day 7 unpurified cultures, high concentrations of fMLP): comparable to MIP-3α
